Results taken from PubChem BioAssay AID308 (DTP/NCI, 2004).
Where “and” joins values, the source holds several entries; their conditions need not be identical. Equal entries are not always repeated. Toxic doses and inconclusive results are not listed.

Tested on: BDF1 mice, L1210 6-MP/6-TG resistant leukemia ip, survival T/C
Experiment: NCI In Vivo Anticancer Drug Screen. Data for tumor model L1210 Leukemia resistant to 6-MP and 6-Thioguanine; NSC 755, NSC 752 (intraperitoneal) in B6D2F1 (BDF1) mice
Settings: endpoint: mean survival time, higher = longer survival
Experimental: The antitumor activity of compounds was measured in mice bearing transplantable tumors. Survival or tumor size were measured and the results are expressed as the measurement made in the treated group (T) divided by the measurement made in the vehicle treated control group (C). The tumor model used in this assay is L1210 Leukemia resistant to 6-MP and 6-Thioguanine; NSC 755, NSC 752 (intraperitoneal) in B6D2F1 (BDF1) mice

[1] = dose: 50.0 mg/kg/injection, schedule: Q01DX Z (ip), vehicle: saline

SMILES: CSc1ncnc2c1ncn2C1OC(CO)C(O)C1O (stereo unspecified)
- T/C (dose: 2.0 mg/kg/injection, schedule: Q01DX Z (ip), vehicle: saline): 117 % of control
- T/C (dose: 3.0 mg/kg/injection, schedule: Q01DX015 (ip), vehicle: saline): 119 % of control and 121 % of control
- T/C (dose: 4.0 mg/kg/injection, schedule: Q01DX Z (oral), vehicle: saline): 100 % of control
- T/C (dose: 7.0 mg/kg/injection, schedule: Q01DX015 (ip), vehicle: saline): 158 % of control
- T/C (dose: 7.0 mg/kg/injection, schedule: Q01DX Z (ip), vehicle: saline): 151 % of control
- T/C (dose: 8.0 mg/kg/injection, schedule: Q01DX Z (ip), vehicle: saline): 168 % of control
- T/C (dose: 8.0 mg/kg/injection, schedule: Q01DX Z (oral), vehicle: saline): 107 % of control
- T/C (dose: 10.0 mg/kg/injection, schedule: Q## X032 (ip), vehicle: saline): 114 % of control
- T/C (dose: 12.0 mg/kg/injection, schedule: Q01DX001 (ip), vehicle: alkali diluted with saline): 102 % of control and 103 % of control
- T/C (dose: 12.0 mg/kg/injection, schedule: Q01DX Z (ip), vehicle: saline): 175 % of control
- T/C (dose: 12.0 mg/kg/injection, schedule: Q01DX Z (oral), vehicle: saline): 100 % of control
- T/C (dose: 13.0 mg/kg/injection, schedule: Q02DX008 (ip), vehicle: saline): 122 % of control
- T/C (dose: 13.0 mg/kg/injection, schedule: Q## X004 (ip), vehicle: saline): 108 % of control
- T/C (dose: 16.0 mg/kg/injection, schedule: Q01DX015 (ip), vehicle: saline): 152 % of control and 166 % of control
- T/C (dose: 16.0 mg/kg/injection, schedule: Q01DX Z (ip), vehicle: clinical formulation): 123 % of control
- T/C (dose: 16.0 mg/kg/injection, schedule: Q01DX Z (ip), vehicle: saline): 191 % of control
- T/C (dose: 16.0 mg/kg/injection, schedule: Q01DX Z (oral), vehicle: saline): 111 % of control
- T/C (dose: 18.0 mg/kg/injection, schedule: Q01DX001 (ip), vehicle: alkali diluted with saline): 116 % of control and 103 % of control
- T/C (dose: 18.0 mg/kg/injection, schedule: Q01DX001 (ip), vehicle: saline): 112 % of control and 98 % of control
- T/C (dose: 21.0 mg/kg/injection, schedule: Q01DX015 (ip), vehicle: saline): 159 % of control
- T/C (dose: 24.0 mg/kg/injection, schedule: Q01DX015 (ip), vehicle: saline): 163 % of control
- T/C (dose: 24.0 mg/kg/injection, schedule: Q01DX Z (ip), vehicle: saline): 119 % of control
- T/C (dose: 24.0 mg/kg/injection, schedule: Q01DX Z (oral), vehicle: saline): 113 % of control and 120 % of control
- T/C (dose: 24.0 mg/kg/injection, schedule: Q## X032 (ip), vehicle: saline): 150 % of control
- T/C (dose: 26.0 mg/kg/injection, schedule: Q01DX001 (ip), vehicle: alkali diluted with saline): 118 % of control and 111 % of control
- T/C (dose: 26.0 mg/kg/injection, schedule: Q01DX001 (ip), vehicle: saline): 104 % of control
- T/C (dose: 27.0 mg/kg/injection, schedule: Q01DX001 (ip), vehicle: saline): 114 % of control and 108 % of control
- T/C (dose: 32.0 mg/kg/injection, schedule: Q01DX Z (ip), vehicle: saline): 121 % of control
- T/C (dose: 32.0 mg/kg/injection, schedule: Q01DX Z (oral), vehicle: saline): 120 % of control and 106 % of control
- T/C (dose: 32.0 mg/kg/injection, schedule: Q## X032 (ip), vehicle: saline): 152 % of control and 158 % of control
- T/C (dose: 36.0 mg/kg/injection, schedule: Q01DX015 (ip), vehicle: saline): 114 % of control
- T/C (dose: 37.0 mg/kg/injection, schedule: Q01DX Z (ip), vehicle: saline): 95 % of control
- T/C (dose: 40.0 mg/kg/injection, schedule: Q01DX001 (ip), vehicle: alkali diluted with saline): 119 % of control and 106 % of control
- T/C (dose: 40.0 mg/kg/injection, schedule: Q01DX001 (ip), vehicle: saline): 117 % of control and 98 % of control and 108 % of control
- T/C (dose: 44.0 mg/kg/injection, schedule: Q02DX008 (ip), vehicle: saline): 158 % of control
- T/C (dose: 45.0 mg/kg/injection, schedule: Q01DX015 (ip), vehicle: saline): 92 % of control and 94 % of control
- T/C (dose: 45.0 mg/kg/injection, schedule: Q## X004 (ip), vehicle: saline): 157 % of control
- T/C (dose: 48.0 mg/kg/injection, schedule: Q01DX Z (ip), vehicle: saline): 96 % of control
- T/C (dose: 48.0 mg/kg/injection, schedule: Q01DX Z (oral), vehicle: saline): 95 % of control and 103 % of control
- T/C (dose: 48.0 mg/kg/injection, schedule: Q## X032 (ip), vehicle: saline): 164 % of control and 171 % of control
- T/C [1]: 90 % of control
- T/C (dose: 54.0 mg/kg/injection, schedule: Q01DX001 (ip), vehicle: saline): 109 % of control
- T/C (dose: 60.0 mg/kg/injection, schedule: Q01DX001 (ip), vehicle: saline): 119 % of control and 107 % of control
- T/C (dose: 61.0 mg/kg/injection, schedule: Q01DX001 (ip), vehicle: alkali diluted with saline): 113 % of control
- T/C (dose: 61.0 mg/kg/injection, schedule: Q01DX001 (ip), vehicle: saline): 113 % of control
- T/C (dose: 67.0 mg/kg/injection, schedule: Q## X004 (ip), vehicle: saline): 162 % of control
- T/C (dose: 72.0 mg/kg/injection, schedule: Q## X032 (ip), vehicle: saline): 165 % of control and 166 % of control
- T/C (dose: 81.0 mg/kg/injection, schedule: Q01DX001 (ip), vehicle: saline): 124 % of control
- T/C (dose: 90.0 mg/kg/injection, schedule: Q01DX001 (ip), vehicle: saline): 109 % of control
- T/C (dose: 92.0 mg/kg/injection, schedule: Q01DX001 (ip), vehicle: alkali diluted with saline): 123 % of control and 111 % of control
- T/C (dose: 100.0 mg/kg/injection, schedule: Q02DX008 (ip), vehicle: saline): 99 % of control
- T/C (dose: 100.0 mg/kg/injection, schedule: Q## X004 (ip), vehicle: saline): 170 % of control
- T/C (dose: 108.0 mg/kg/injection, schedule: Q## X032 (ip), vehicle: saline): 116 % of control and 98 % of control
- T/C (dose: 138.0 mg/kg/injection, schedule: Q01DX001 (ip), vehicle: alkali diluted with saline): 116 % of control
- T/C (dose: 138.0 mg/kg/injection, schedule: Q01DX001 (ip), vehicle: saline): 118 % of control
- T/C (dose: 150.0 mg/kg/injection, schedule: Q## X004 (ip), vehicle: saline): 164 % of control
- T/C (dose: 207.0 mg/kg/injection, schedule: Q01DX001 (ip), vehicle: alkali diluted with saline): 119 % of control and 124 % of control
- T/C (dose: 300.0 mg/kg/injection, schedule: Q01DX001 (ip), vehicle: saline): 111 % of control

SMILES: Nc1ncnc2c1ccn2C1OC(CO)C(O)C1O (stereo unspecified)
- T/C (dose: 0.03 mg/kg/injection, schedule: Q01DX Z (ip), vehicle: carboxymethylcellulose (CMC)): 99 % of control
- T/C (dose: 0.06 mg/kg/injection, schedule: Q01DX Z (ip), vehicle: carboxymethylcellulose (CMC)): 101 % of control
- T/C (dose: 0.12 mg/kg/injection, schedule: Q01DX Z (ip), vehicle: carboxymethylcellulose (CMC)): 108 % of control
- T/C (dose: 0.25 mg/kg/injection, schedule: Q01DX Z (ip), vehicle: carboxymethylcellulose (CMC)): 104 % of control
- T/C (dose: 0.5 mg/kg/injection, schedule: Q01DX Z (ip), vehicle: carboxymethylcellulose (CMC)): 106 % of control
- T/C (dose: 1.0 mg/kg/injection, schedule: Q01DX Z (ip), vehicle: carboxymethylcellulose (CMC)): 102 % of control
- T/C (dose: 2.0 mg/kg/injection, schedule: Q01DX Z (ip), vehicle: carboxymethylcellulose (CMC)): 98 % of control

SMILES: CC(=O)OCC1OC(n2cnc3c(=S)nc(N)[nH]c32)C(OC(C)=O)C1OC(C)=O (stereo unspecified)
- T/C (dose: 1.0 mg/kg/injection, schedule: Q01DX Z (ip), vehicle: other): 89 % of control
- T/C (dose: 2.0 mg/kg/injection, schedule: Q01DX Z (ip), vehicle: other): 89 % of control
- T/C (dose: 4.0 mg/kg/injection, schedule: Q01DX Z (ip), vehicle: other): 101 % of control
- T/C (dose: 6.0 mg/kg/injection, schedule: Q01DX Z (ip), vehicle: other): 92 % of control
- T/C (dose: 12.5 mg/kg/injection, schedule: Q01DX Z (ip), vehicle: other): 98 % of control
- T/C (dose: 25.0 mg/kg/injection, schedule: Q01DX Z (ip), vehicle: other): 93 % of control

SMILES: C[N+](C)(C)c1ncnc2nc[nH]c12
- T/C (dose: 11.25 mg/kg/injection, schedule: Q01DX Z (ip), vehicle: saline): 101 % of control
- T/C (dose: 22.5 mg/kg/injection, schedule: Q01DX Z (ip), vehicle: saline): 100 % of control
- T/C (dose: 45.0 mg/kg/injection, schedule: Q01DX Z (ip), vehicle: saline): 102 % of control
- T/C [1]: 105 % of control
- T/C (dose: 90.0 mg/kg/injection, schedule: Q01DX Z (ip), vehicle: saline): 94 % of control
- T/C (dose: 100.0 mg/kg/injection, schedule: Q01DX Z (ip), vehicle: saline): 99 % of control

SMILES: C=CCn1cnc2c(=S)nc[nH]c21
- T/C (dose: 18.0 mg/kg/injection, schedule: Q01DX015 (ip), vehicle: other): 103 % of control
- T/C (dose: 26.0 mg/kg/injection, schedule: Q01DX015 (ip), vehicle: other): 108 % of control
- T/C (dose: 40.0 mg/kg/injection, schedule: Q01DX015 (ip), vehicle: other): 101 % of control
- T/C (dose: 60.0 mg/kg/injection, schedule: Q01DX015 (ip), vehicle: other): 95 % of control
